According to US20220235006A1, “PYRIDINE DERIVATIVES AS TMEM16A MODULATORS FOR USE IN THE TREATMENT OF RESPIRATORY CONDITIONS” (TMEM16A LIMITED, priority 2019, published 2022):

Experiments:
[1] = molecular target: T1, human TMEM16A (TMEM16Aabc variant) (Homo sapiens, UniProt Q5XXA6, DEL476-501); assay: Automated whole-cell patch clamp (Qpatch) TMEM16A potentiator assay in recombinant FRT cells; format: cell-based; details: for EC50: minimum n = 2; for activation at 3.33 µM: percentage increase of baseline TMEM16A current, minimum n = 2, read-out: % Potentiation @ 3.33 uM Avg
T1 sequence (Q5XXA6 with tags, fused parts or gaps isoform Q5XXA6-5 DEL539-564): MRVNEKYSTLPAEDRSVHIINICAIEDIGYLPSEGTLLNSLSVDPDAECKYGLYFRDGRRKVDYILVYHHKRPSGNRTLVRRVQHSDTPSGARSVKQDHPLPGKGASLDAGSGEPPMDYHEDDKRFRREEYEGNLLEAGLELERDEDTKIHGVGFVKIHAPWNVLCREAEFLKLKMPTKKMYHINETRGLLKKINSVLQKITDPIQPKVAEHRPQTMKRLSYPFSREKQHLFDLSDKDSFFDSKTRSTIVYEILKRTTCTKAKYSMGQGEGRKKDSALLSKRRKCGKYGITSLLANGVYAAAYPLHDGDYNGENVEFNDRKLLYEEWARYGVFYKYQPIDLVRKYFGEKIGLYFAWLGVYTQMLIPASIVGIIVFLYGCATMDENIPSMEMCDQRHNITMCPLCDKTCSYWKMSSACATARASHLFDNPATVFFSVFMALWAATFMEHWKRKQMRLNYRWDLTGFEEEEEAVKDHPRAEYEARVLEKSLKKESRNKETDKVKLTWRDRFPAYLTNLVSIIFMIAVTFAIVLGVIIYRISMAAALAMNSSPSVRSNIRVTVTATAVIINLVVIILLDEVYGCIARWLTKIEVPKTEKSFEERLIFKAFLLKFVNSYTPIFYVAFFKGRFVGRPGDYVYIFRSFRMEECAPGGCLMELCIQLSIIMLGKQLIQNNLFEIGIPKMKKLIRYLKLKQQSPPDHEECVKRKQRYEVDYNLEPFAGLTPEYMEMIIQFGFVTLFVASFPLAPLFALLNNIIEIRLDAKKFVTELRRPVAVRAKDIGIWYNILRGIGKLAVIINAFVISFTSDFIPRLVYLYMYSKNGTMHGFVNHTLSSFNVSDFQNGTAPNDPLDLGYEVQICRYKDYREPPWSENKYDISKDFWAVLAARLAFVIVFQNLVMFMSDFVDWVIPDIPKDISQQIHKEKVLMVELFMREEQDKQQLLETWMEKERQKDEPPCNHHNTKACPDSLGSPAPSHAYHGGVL
Summary of the method: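 FRT cells stably expressing human TMEM16Aabc, whole-cell automated patch clamp with intracellular Ca2+ buffered for ~20% maximal current (EC20). Held at −70 mV, step to +70 mV/ramp at 0.05 Hz, cumulative compound additions of 5 min each. Peak +70 mV current increase expressed as % potentiation of baseline.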

[2] = Log D (pH7.4 shake flask); format: physicochemical; details: pH 7.4; 1-octanol/phosphate buffer shake flask; read-out: mLogD (pH 7.4)
Experimental: Phosphate buffer (1 M) was diluted to 20 mM with deionised water and adjusted to pH 7.4 with phosphoric acid or sodium hydroxide. 1-octanol and phosphate buffer (20 mM) were saturated overnight by tumbling. The two phases were separated using a separation funnel. 5 μL of 5 mM compound cassette was added to 495 μL of octanol-saturated buffer and 495 μL buffer saturated octanol in a 96-well plate (top concentration 50 μM). Plate was shaken for 1 h and centrifuged at 25° C. for 5 min. 200 μL of each phase was transferred to a separate plate. The octanol layer was sampled first to avoid cross contamination. 5 μL of the solutions were transferred to 495 μL of quench solution* (max concentration 0.5 μM). In addition, 40 μL of buffer solution was added to 360 μL of quench solvent (max concentration 5 μM). Samples were analysed by LC-MS/MS. Benchmarking against a calibration curve for each compound and with reference to the control compounds sulpride, diclofenac, chlorpromazine and tamoxifen. *Quench solution was a 1:3:1 mixture (v/v/v) of Acetonitrile containing 0.1% formic acid and imipramine/labetalol, 200 nM:Acetonitrile:Water.

EC50 [1] [nM]	logD [2]	activation at 3.33 µM [1] [%]	SMILES
55	> 4.5		CC(C)(C)NC(=O)c1cc(NC(=O)Cc2cc(O)c(C(C)(C)C)cc2F)ccn1 [91 of PCT/GB2019/050209, reference compound]
64	3.1	243	CC(C)(O)c1cc(F)c(CC(=O)Nc2ccnc(C(=O)NC3(C(F)(F)F)CC3)c2)cc1O [Example 2, 4-[[2-[2-Fluoro-5-hydroxy-4-(1-hydroxy-1-methyl-ethyl)phenyl]acetyl]amino]-N-[1-(trifluoromethyl)cyclopropyl]pyridine-2-carboxamide]
64	3.6	390	CCC(C)(O)c1cc(F)c(CC(=O)Nc2ccnc(C(=O)NC3(C(F)(F)F)CC3)c2)cc1O (centres unmarked) [Example 2.11, 4-[[2-[2-Fluoro-5-hydroxy-4-(1-hydroxy-1-methyl-propyl)phenyl]acetyl]amino]-N-[1-(trifluoromethyl)cyclopropyl]pyridine-2-carboxamide]
104	3.9	380	CC(C#N)NC(=O)c1cc(NC(=O)Cc2cc(O)c(C(C)(C)C)cc2F)ccn1 (centres unmarked) [Example 1.3]
30	3.2	270	CC(C)(CO)c1cc(F)c(CC(=O)Nc2ccnc(C(=O)NC3(C(F)(F)F)CC3)c2)cc1O [Example 2.6, 4-[[2-[2-Fluoro-5-hydroxy-4-(2-hydroxy-1,1-dimethyl-ethyl)phenyl]acetyl]amino]-N-[1-(trifluoromethyl)cyclopropyl]pyridine-2-carboxamide]
43	3.7	208	CC(C)(CCO)c1cc(F)c(CC(=O)Nc2ccnc(C(=O)NC3(C(F)(F)F)CC3)c2)cc1O [Example 11, 4-[[2-[2-Fluoro-5-hydroxy-4-(3-hydroxy-1,1-dimethyl-propyl)phenyl]acetyl]amino]-N-[1-(trifluoromethyl)cyclopropyl]pyridine-2-carboxamide]
37	3.3	339	O=C(Cc1cc(O)c(C2(CO)CCC2)cc1F)Nc1ccnc(C(=O)NC2(C(F)(F)F)CC2)c1 [Example 2.13, 4-[[2-[2-Fluoro-5-hydroxy-4-[1-(hydroxymethyl)cyclobutyl]phenyl]acetyl]amino]-N-[1-(trifluoromethyl)cyclopropyl]pyridine-2-carboxamide]
64	> 4.1	476	CC(C)(C#N)NC(=O)c1cc(NC(=O)Cc2ccc(C(C)(C)C)c(O)c2)ccn1 [93.4 of PCT/GB2019/050209, reference compound]
45	3.4	233	Cc1cc(C(C)(C)CO)c(O)cc1CC(=O)Nc1ccnc(C(=O)NC2(C(F)(F)F)CC2)c1 [Example 14.1, 4-[[2-[5-Hydroxy-4-(2-hydroxy-1,1-dimethyl-ethyl)-2-methyl-phenyl]acetyl]amino]-N-[1-(trifluoromethyl)cyclopropyl]pyridine-2-carboxamide]
36	3.4	250	CC(C)(CO)c1cc(Cl)c(CC(=O)Nc2ccnc(C(=O)NC3(C(F)F)CC3)c2)cc1O [Example 15.3, 4-[[2-[2-Chloro-5-hydroxy-4-(2-hydroxy-1,1-dimethyl-ethyl)phenyl]acetyl]amino]-N-[1-(difluoromethyl)cyclopropyl]pyridine-2-carboxamide]
33	3.9	490	CC(C)(CO)c1cc(Cl)c(CC(=O)Nc2ccnc(C(=O)NC3(C(F)(F)F)CC3)c2)cc1O [Example 14, 4-[[2-[2-Chloro-5-hydroxy-4-(2-hydroxy-1,1-dimethyl-ethyl)phenyl]acetyl]amino]-N-[1-(trifluoromethyl)cyclopropyl]pyridine-2-carboxamide]
93	3.3	374	O=C(Cc1cc(O)c(C(CO)C(F)(F)F)cc1F)Nc1ccnc(C(=O)NC2(C(F)(F)F)CC2)c1 (centres unmarked) [Example 17, 4-[[2-[2-Fluoro-5-hydroxy-4-[2,2,2-trifluoro-1-(hydroxymethyl)ethyl]phenyl]acetyl]amino]N-[1-(trifluoromethyl)cyclopropyl]pyridine-2-carboxamide]
